Laboratory results reported in PubChem BioAssay AID2060501 (Molecular Pharmacology Branch, DTP, NCI, 2025).

System: 282377-053-R-J1-PDC complex spheroids, viability
Test: Anticancer human tumor 282377-053-R-J1-PDC patient-derived colon adenocarcinoma cell line growth inhibition [GQUAD]
Settings: for IC50: curve of first compound; for viability, T/C: stronger effect = lower value; active means viability on the fitted dose curve at most 10% of control; inactive means the rest
Method in brief: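 Tumor cells were grown as complex spheroids with HUVEC endothelial cells and mesenchymal stem cells as stroma. G-quadruplex stabilizers were combined with targeted agents over half-log dilutions from near the clinical Cmax, or from 10 microM.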

[1] = second compound 0.0316 µM, first compound 0.0316 µM
[2] = second compound 0.0316 µM, first compound 0.1 µM
[3] = second compound 0.0316 µM, first compound 0.316 µM
[4] = second compound 0.0316 µM, first compound 1 µM
[5] = second compound 0.0316 µM, first compound 3.16 µM
[6] = second compound 0.0316 µM, first compound 10 µM
[7] = second compound 0.1 µM, first compound 0.0316 µM
[8] = second compound 0.1 µM, first compound 0.1 µM
[9] = second compound 0.1 µM, first compound 0.316 µM
[10] = second compound 0.1 µM, first compound 1 µM
[11] = second compound 0.1 µM, first compound 3.16 µM
[12] = second compound 0.1 µM, first compound 10 µM
[13] = second compound 0.316 µM, first compound 0.0316 µM
[14] = second compound 0.316 µM, first compound 0.1 µM
[15] = second compound 0.316 µM, first compound 0.316 µM
[16] = second compound 0.316 µM, first compound 1 µM
[17] = second compound 0.316 µM, first compound 3.16 µM
[18] = second compound 0.316 µM, first compound 10 µM
[19] = second compound 1 µM, first compound 0.0316 µM
[20] = second compound 1 µM, first compound 0.1 µM
[21] = second compound 1 µM, first compound 0.316 µM
[22] = second compound 1 µM, first compound 1 µM
[23] = second compound 1 µM, first compound 3.16 µM
[24] = second compound 1 µM, first compound 10 µM
[25] = second compound 3.16 µM, first compound 0.0316 µM
[26] = second compound 3.16 µM, first compound 0.1 µM
[27] = second compound 3.16 µM, first compound 0.316 µM
[28] = second compound 3.16 µM, first compound 1 µM
[29] = second compound 3.16 µM, first compound 3.16 µM
[30] = second compound 3.16 µM, first compound 10 µM
[31] = second compound 10 µM, first compound 0.0316 µM
[32] = second compound 10 µM, first compound 0.1 µM
[33] = second compound 10 µM, first compound 0.316 µM
[34] = second compound 10 µM, first compound 1 µM
[35] = second compound 10 µM, first compound 3.16 µM
[36] = second compound 10 µM, first compound 10 µM
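Further: spheroids exposed to compounds for 7 days before readout.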
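Wherever viability, T/C is given: percent of vehicle DMSO control viability with 100% = untreated-like growth.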

COc1cc(C2c3cc4c(cc3C(OC3OC5COC(C)OC5C(O)C3O)C3COC(=O)C23)OCO4)cc(OC)c1O (stereo unspecified) + Cc1cnc(CNC(=O)c2c(=O)c3ccc(N4CCCN(C)CC4)nc3n3c2sc2ccccc23)cn1
> 10000 nM: IC50 (second compound 0.0316 µM) | IC50 (second compound 0.316 µM) | IC50 (second compound 1 µM)
337 nM: IC50 (second compound 10 µM)
inactive: viability, T/C [1] 127% | viability, T/C [2] 95% | viability, T/C [3] 126% | viability, T/C [4] 90% | viability, T/C [5] 68.3% | viability, T/C [6] 50.8% | viability, T/C [7] 109% | viability, T/C [8] 91.3% | viability, T/C [9] 107% | viability, T/C [10] 76.1% | viability, T/C [11] 72.7% | viability, T/C [12] 48.6% | viability, T/C [13] 103% | viability, T/C [14] 91.9% | viability, T/C [15] 87.1% | viability, T/C [16] 68.8% | viability, T/C [17] 66.4% | viability, T/C [18] 50.9% | viability, T/C [19] 70.7% | viability, T/C [20] 51.3% | viability, T/C [21] 70.2% | viability, T/C [22] 63% | viability, T/C [23] 62.7% | viability, T/C [24] 41.6% | viability, T/C [25] 60.5% | viability, T/C [26] 57.5% | viability, T/C [27] 49.8% | viability, T/C [28] 48.5% | viability, T/C [29] 52.1% | viability, T/C [30] 37.4% | viability, T/C [31] 45.4% | viability, T/C [32] 49.7% | viability, T/C [33] 56.3% | viability, T/C [34] 49.1% | viability, T/C [35] 42.1% | viability, T/C [36] 26.3%
979 nM: IC50 (second compound 3.16 µM)
9720 nM: IC50 (second compound 0.1 µM)

COc1cccc2c1C(=O)c1c(O)c3c(c(O)c1C2=O)CC(O)(C(=O)CO)CC3OC1CC(N)C(O)C(C)O1 (stereo unspecified) + Cc1cnc(CNC(=O)c2c(=O)c3ccc(N4CCCN(C)CC4)nc3n3c2sc2ccccc23)cn1
inactive: viability, T/C [1] 140% | viability, T/C [2] 118% | viability, T/C [3] 83.6% | viability, T/C [4] 55.6% | viability, T/C [5] 11.3% | viability, T/C [7] 99.8% | viability, T/C [8] 97.5% | viability, T/C [9] 82% | viability, T/C [10] 41.1% | viability, T/C [11] 13.1% | viability, T/C [13] 91.6% | viability, T/C [14] 95.1% | viability, T/C [15] 55.5% | viability, T/C [16] 38.9% | viability, T/C [17] 11.9% | viability, T/C [19] 68.2% | viability, T/C [20] 59.6% | viability, T/C [21] 44.3% | viability, T/C [22] 44.8% | viability, T/C [23] 8.25% | viability, T/C [25] 56.4% | viability, T/C [26] 62% | viability, T/C [27] 41.3% | viability, T/C [28] 40.1% | viability, T/C [29] 8.56% | viability, T/C [31] 54.4% | viability, T/C [32] 46.4% | viability, T/C [33] 47% | viability, T/C [34] 39.9%
< 31.6 nM: IC50 (second compound 10 µM)
331 nM: IC50 (second compound 1 µM)
794 nM: IC50 (second compound 0.1 µM)
297 nM: IC50 (second compound 3.16 µM)
545 nM: IC50 (second compound 0.316 µM)
970 nM: IC50 (second compound 0.0316 µM)
active: viability, T/C [6] 1.72% | viability, T/C [12] 1.51% | viability, T/C [18] 1% | viability, T/C [24] 0.83% | viability, T/C [30] 0.74% | viability, T/C [35] 2.37% | viability, T/C [36] 0.53%

Nc1ccn(C2OC(CO)C(O)C2(F)F)c(=O)n1 (stereo unspecified) + Cc1cnc(CNC(=O)c2c(=O)c3ccc(N4CCCN(C)CC4)nc3n3c2sc2ccccc23)cn1
inactive: viability, T/C [1] 98.5% | viability, T/C [2] 65.9% | viability, T/C [3] 25.2% | viability, T/C [4] 24% | viability, T/C [5] 22.9% | viability, T/C [6] 16.7% | viability, T/C [7] 104% | viability, T/C [8] 61.7% | viability, T/C [9] 24.5% | viability, T/C [10] 24.9% | viability, T/C [11] 25.1% | viability, T/C [12] 16.3% | viability, T/C [13] 81.6% | viability, T/C [14] 53.6% | viability, T/C [15] 32% | viability, T/C [16] 22.1% | viability, T/C [17] 22.7% | viability, T/C [18] 16.2% | viability, T/C [19] 53.9% | viability, T/C [20] 44.1% | viability, T/C [21] 25.6% | viability, T/C [22] 22.4% | viability, T/C [23] 20.4% | viability, T/C [24] 15.7% | viability, T/C [25] 49.1% | viability, T/C [26] 37.5% | viability, T/C [27] 23.2% | viability, T/C [28] 21% | viability, T/C [29] 22.4% | viability, T/C [30] 15.9% | viability, T/C [31] 39.2% | viability, T/C [32] 33.5% | viability, T/C [33] 22.1% | viability, T/C [34] 20.3% | viability, T/C [35] 20% | viability, T/C [36] 10.8%
< 31.6 nM: IC50 (second compound 3.16 µM) | IC50 (second compound 10 µM)
49.4 nM: IC50 (second compound 1 µM)
120 nM: IC50 (second compound 0.316 µM)
144 nM: IC50 (second compound 0.1 µM)
157 nM: IC50 (second compound 0.0316 µM)
